Experiments:
K562 = experiment: Cytotoxic MTS assay, K562; format: cell-based; settings: K562, human leukemia cell line, 72 h, median of five assays
From the text: (§1) The cancer cell lines used in the cytotoxic assays were acquired from the American Tissue Culture Collection (ATCC) (Manassas, VA, USA) and maintained as described previously. The MRC-5 and BJ human fibroblasts were used as non-tumoral control cells. The (MRC-5 LD and BJ LD) are also human fibroblast cell lines resistant to doxorubicin. […] The Raji and Ramos cell lines correspond to B-cell leukemia. Other cells, such as U2OS, represent a child osteosarcoma, while HCT116 is a colorectal tumor cell line. (HCT116p53^−/−, Horizon Discovery Ltd., Cambridge, UK) is a similar cell line with its p53 gene knocked down, serving as a model of human cancer frequently associated with a poor prognosis. The cells were maintained in Nunc/corning 80 cm^2 plastic tissue culture flasks and cultured in a cell culture medium according to ATCC or Horizon recommendations (McCoy, DMEM/RPMI 1640 with 5 g/L glucose, 2 mM glutamine, 100 U/mL penicillin, […] streptomycin, 10% fetal calf serum, and NaHCO3). The compounds were freshly dissolved in DMSO. The final concentration of DMSO was 0.01% in the cell culture.
(§2) The in vitro cytotoxicity of compounds (1–7) was assessed using the standard 3-(4,5-dimethyl-thiazol-2yl)-5-(3-carboxymethoxyphenyl)-2-(sulfophenyl)-2H-tetrazolium (MTS). The assay was performed at the Institute of Molecular and Translational Medicine using a robotic platform (High-ResBiosolutions, Beverly, MA, USA). Cell suspensions were prepared and diluted according to the specific cell type and the expected target cell density (25,000–35,000 cells/mL, based on cell growth characteristics). An automatic pipettor (30 μL) was used to add cells into 384-well microtiter plates. All tested compounds were dissolved in 100% DMSO, and four-fold dilutions of the intended test concentrations were added in 0.15 μL aliquots at time zero to the microtiter plate wells by the echo acoustic non-contact liquid handler Echo550 (Labcyte, San Jose, CA, USA). The assays were accomplished in technical duplicates and at least three biological replicates. The cells were incubated with the tested compound for 72 h at 37 °C in a 5% CO2 atmosphere with 100% humidity. At the end of the incubation period, cells were assayed using the MTS test. Aliquots (5 μL) of the MTS stock solution were pipetted into each well and incubated for 1–4 h. After this incubation period, the optical density (OD) was measured at 490 nm using an Envision reader (PerkinElmer, Waltham, MA, USA). Tumor cell survival (TCS) was calculated using the following equation: TCS = (OD drug-exposed well/mean OD control wells) × 100%. The IC50 value, representing the concentration of the compound lethal to 50% of the tumor cells, was calculated from the corresponding dose-response curves using Dotmatics software (Updated version 2022, London, UK). After three days of incubation on the cancer cell lines and normal fibroblasts, the […] (IC50) were obtained. Five assays were performed for each cell line. The standard error of the assays was lower than 10%, as assessed by the triplicate assays.

HCT116KO53 spheroids = experiment: Spheroid viability assay (CellTiter-Glo 3D), HCT116 p53 KO spheroids; format: cell-based; settings: HCT-116, human tumors spheroids, 72 h, 100 pM to 50 μM
Protocol: (§3) Spheroid culture aims to analyze the drug’s effect on complex structures resembling solid tumors. The spheroids were prepared using the specific nonadherent plates for spheroid formation (Nunc Sphera, Thermo Fisher, Waltham, MA, USA) according to the simple protocol outlined by the manufacturer. The cell lines HCT116 parental, HCT116KOTp53, A549, and U2OS were cultured at a density of 2500 cells per well using medium containing 10% fetal calf serum and antibiotics: McCoy’s 5A medium for HCT116, F-12K (Kaighn’s Modified) for A549, and Dulbecco’s Modified Eagle Medium (DMEM). The cells were grown in culture for 48 h as recommended by the manufacturer and as described by Das et al. and Muñoz-Garcia et al..
(§4) The cell viability of the treated spheroids was assessed using the kit CellTiter-Glo 3D (Promega Corporation, Madison, WI, USA). The kit is designed to measure ATP as an indicator of viability, generating a luminescent readout that is more sensitive than colorimetric or fluorescence-based methods. The spheroids were cultivated with compounds at concentrations ranging from 100 pM to 50 μM in triplicate for 72 h, and the luminescence was measured using the Enspire apparatus (PerkinElmer). A standard curve was performed for each analysis as recommended by the manufacturer.

RAMOS = experiment: Cytotoxic MTS assay, Ramos; format: cell-based; settings: Ramos, human leukemia cell line, 72 h, median of five assays
From the text: as §1, §2

U2OS spheroids = experiment: Spheroid viability assay (CellTiter-Glo 3D), U2OS spheroids; format: cell-based; settings: U2OS, human tumors spheroids, 72 h, 100 pM to 50 μM
Protocol: as §3, §4

caspase 3 = experiment: Caspase 3 activity in lysed HCT116 cells from 2D and spheroids; format: cell-based, human; settings: 12 h; for Caspase 3 activity, 2D culture: HCT116 parental, 25 µM; for Caspase 3 activity, spheroid culture: HCT116 parental spheroids, 25 µM (cisplatin 15 μM)
Protocol: The assay was designed to evaluate the impact of various compounds on caspase activity using a standardized quantity of cell protein lysates after 12 h of incubation. The parental line HCT116 served as the basis for these experiments. Three distinct caspases were examined employing the fluorescence assay kits from Calbiochem (San Diego, CA, USA), specifically a fluorometric caspase-8 assay kit and a fluorimetric caspase-3 assay kit. Additionally, the fluorometric kit from Abcam was utilized to assess caspase-9 activity. Due to the variations in protocols for each caspase, separate plates were prepared for each assay, encompassing both two-dimensional (2D) cell cultures and spheroids. The compound concentrations were established at 25 µM, and assays were conducted in quintuplicate following a 12-h incubation period. The cells were harvested from the plates using the standard trypsin-EDTA solution (Merck Sigma Aldrich, Saint Louis, MO, USA), washed, and counted before lysis, as described in each kit. Cell processing adhered to the guidelines provided by the respective companies, and protein concentration was calculated and standardized using the standard BCA assay. Fluorescent readings were captured using the Enspire apparatus (Perkin-Elmer, MA, USA). Positive controls utilized included staurosporine at a concentration of 5 μM and cisplatin at 15 μM. The kits provided their own standards; however, to normalize all the readings between cultures, types, and treatments, the results were expressed as a percentage relative to the positive control, staurosporine, in 2D culture. […] A total of three separate assays were conducted for each caspase.

HCT116KO53 = experiment: Cytotoxic MTS assay, HCT116 p53 knockout 2D; format: cell-based; settings: HCT-116, human tumors 2D, 72 h, median of five assays
From the text: as §1, §2

SMILES	IC50 (K562)	IC50 (HCT116KO53 spheroids)	IC50 (RAMOS)	IC50 (U2OS spheroids)	Caspase 3 activity, 2D culture (caspase 3)	IC50 (HCT116KO53)	Caspase 3 activity, spheroid culture (caspase 3)
C=C(C)C1CCC23CC(CCC2C1(C)CCC(=O)OC(C)=O)C(C)C3=O (single isomer, unassigned; ent-3) [Compound 6, Ent-3,4-Seco-15-Oxo-Kaur-4(19)-en-Acetic Anhydride]	> 50 µM	> 50 µM	> 50 µM	> 50 µM	did not induce caspase activity	> 50 µM	
C=C(C)C1CCC23CC(CCC2C1(C)CCC(=O)O)C(C)C3=O (single isomer, unassigned; ent-3) [Compound 5, Ent-3,4-Seco-15-Oxo-Kaur-4(19)-en-3-Oic Acid]	> 50 µM	> 50 µM	> 50 µM	> 50 µM	did not induce caspase activity	> 50 µM	
C=C1C(=O)C23CCC(C(=C)C)C(C)(CCC(=O)OC(C)=O)C2CCC1C3 (centres unmarked) [Compound 7, Caracasine-Acetic Anhydride]	4.6 µM	> 50 µM	0.96 µM	> 50 µM	significant changes	1.91 µM	absence of caspase activity
C=C1C(=O)C23CCC(C(=C)C)C(C)(CCC(=O)OC)C2CCC1C3 (centres unmarked) [Compound 2, Caracasine]	3.29 µM	> 50 µM	0.96 µM	> 50 µM	significant changes	1.91 µM	absence of caspase activity

— publication PMC12298629, “New Derivatives of Caracasine Acid with Anti-Leukemic Activity and Limited Effectiveness in Spheroid Cultures” (Pharmaceuticals, 2025)
